Results reported in ChEMBL document CHEMBL4507282, “Data for DCP probe BI-1950” (2021).

How the values were obtained:
[1] = biological target: Ephrin type-A receptor 1 (Homo sapiens) (UniProt P21709); conditions: Compound concentration 1000.0 nM
[2] = biological target: 5-hydroxytryptamine receptor 5A (Homo sapiens) (UniProt P47898); conditions: Compound concentration 10.0 uM
[3] = biological target: Aurora kinase B (Homo sapiens) (UniProt Q96GD4); conditions: Compound concentration 1000.0 nM
[4] = biological target: Serine/threonine-protein kinase TAO2 (Homo sapiens) (UniProt Q9UL54); conditions: Compound concentration 1000.0 nM
[5] = biological target: Phosphatidylinositol 4-phosphate 3-kinase C2 domain-containing subunit beta (Homo sapiens) (UniProt O00750); conditions: Compound concentration 1000.0 nM
[6] = biological target: Ephrin type-B receptor 2 (Homo sapiens) (UniProt P29323); conditions: Compound concentration 1000.0 nM
[7] = system: Phosphatidylinositol 4,5-bisphosphate 3-kinase catalytic subunit alpha isoform (Homo sapiens), P42336 [H1047Y]; conditions: Compound concentration 1000.0 nM
[8] = biological target: Mitogen-activated protein kinase kinase kinase 3 (Homo sapiens) (UniProt Q99759); conditions: Compound concentration 1000.0 nM
[9] = biological target: Serine/threonine-protein kinase pim-1 (Homo sapiens) (UniProt P11309); conditions: Compound concentration 1000.0 nM
[10] = biological target: Cyclin-dependent kinase 19 (Homo sapiens) (UniProt Q9BWU1); conditions: Compound concentration 1000.0 nM
[11] = biological target: Serine/threonine-protein kinase haspin (Homo sapiens) (UniProt Q8TF76); conditions: Compound concentration 1000.0 nM
[12] = biological target: Insulin-like growth factor 1 receptor (Homo sapiens) (UniProt P08069); conditions: Compound concentration 1000.0 nM
[13] = biological target: Mitogen-activated protein kinase kinase kinase 19 (Homo sapiens) (UniProt Q56UN5); conditions: Compound concentration 1000.0 nM
[14] = biological target: Homeodomain-interacting protein kinase 4 (Homo sapiens) (UniProt Q8NE63); conditions: Compound concentration 1000.0 nM
[15] = biological target: Serine/threonine-protein kinase OSR1 (Homo sapiens) (UniProt O95747); conditions: Compound concentration 1000.0 nM
[16] = biological target: cAMP-dependent protein kinase catalytic subunit PRKX (Homo sapiens) (UniProt P51817); conditions: Compound concentration 1000.0 nM
[17] = biological target: Dual specificity mitogen-activated protein kinase kinase 3 (Homo sapiens) (UniProt P46734); conditions: Compound concentration 1000.0 nM
[18] = biological target: Casein kinase I isoform alpha-like (Homo sapiens) (UniProt Q8N752); conditions: Compound concentration 1000.0 nM
[19] = biological target: Mitogen-activated protein kinase kinase kinase 2 (Homo sapiens) (UniProt Q9Y2U5); conditions: Compound concentration 1000.0 nM
[20] = biological target: Mitogen-activated protein kinase 13 (Homo sapiens) (UniProt O15264); conditions: Compound concentration 1000.0 nM
[21] = system: Receptor-type tyrosine-protein kinase FLT3 (Homo sapiens), P36888 [D835H]; conditions: Compound concentration 1000.0 nM
[22] = biological target: Cyclin-dependent kinase 2 (Homo sapiens) (UniProt P24941); conditions: Compound concentration 1000.0 nM
[23] = biological target: Serine/threonine-protein kinase BRSK2 (Homo sapiens) (UniProt Q8IWQ3); conditions: Compound concentration 1000.0 nM
[24] = biological target: 5-hydroxytryptamine receptor 1B (Homo sapiens) (UniProt P28222); conditions: Compound concentration 10.0 uM
[25] = biological target: Sigma intracellular receptor 2 (Homo sapiens, UniProt Q5BJF2); conditions: Compound concentration 10.0 uM
[26] = biological target: Testis-specific serine/threonine-protein kinase 3 (Homo sapiens) (UniProt Q96PN8); conditions: Compound concentration 1000.0 nM
[27] = biological target: Activin receptor type-2A (Homo sapiens) (UniProt P27037); conditions: Compound concentration 1000.0 nM
[28] = system: Leucine-rich repeat serine/threonine-protein kinase 2 (Homo sapiens), Q5S007 [G2019S]; conditions: Compound concentration 1000.0 nM
[29] = biological target: TGF-beta receptor type-2 (Homo sapiens) (UniProt P37173); conditions: Compound concentration 1000.0 nM
[30] = system: Phosphatidylinositol 4,5-bisphosphate 3-kinase catalytic subunit alpha isoform (Homo sapiens), P42336 [I800L]; conditions: Compound concentration 1000.0 nM
[31] = biological target: 5-hydroxytryptamine receptor 1D (Homo sapiens) (UniProt P28221); conditions: Compound concentration 10.0 uM
[32] = biological target: Death-associated protein kinase 3 (Homo sapiens) (UniProt O43293); conditions: Compound concentration 1000.0 nM
[33] = biological target: G protein-coupled receptor kinase 3 (Homo sapiens) (UniProt P35626); conditions: Compound concentration 1000.0 nM
[34] = biological target: Serine/threonine-protein kinase PLK4 (Homo sapiens) (UniProt O00444); conditions: Compound concentration 1000.0 nM
[35] = biological target: Angiopoietin-1 receptor (Homo sapiens) (UniProt Q02763); conditions: Compound concentration 1000.0 nM
[36] = biological target: Hormonally up-regulated neu tumor-associated kinase (Homo sapiens) (UniProt P57058); conditions: Compound concentration 1000.0 nM
[37] = biological target: Cyclin-dependent kinase 2 homolog (Plasmodium falciparum (isolate 3D7)) (UniProt P61075); conditions: Compound concentration 1000.0 nM
[38] = biological target: Tyrosine-protein kinase HCK (Homo sapiens) (UniProt P08631); conditions: Compound concentration 1000.0 nM
[39] = biological target: Mitogen-activated protein kinase kinase kinase 15 (Homo sapiens) (UniProt Q6ZN16); conditions: Compound concentration 1000.0 nM
[40] = biological target: Peripheral plasma membrane protein CASK (Homo sapiens) (UniProt O14936); conditions: Compound concentration 1000.0 nM
[41] = biological target: Serine/threonine-protein kinase VRK2 (Homo sapiens) (UniProt Q86Y07); conditions: Compound concentration 1000.0 nM
[42] = biological target: Serine/threonine-protein kinase 4 (Homo sapiens) (UniProt Q13043); conditions: Compound concentration 1000.0 nM
[43] = biological target: cGMP-dependent protein kinase 1 (Homo sapiens) (UniProt Q13976); conditions: Compound concentration 1000.0 nM
[44] = system: Mast/stem cell growth factor receptor Kit (Homo sapiens), P10721 [V559D,V654A]; conditions: Compound concentration 1000.0 nM
[45] = biological target: Inhibitor of nuclear factor kappa-B kinase subunit alpha (Homo sapiens) (UniProt O15111); conditions: Compound concentration 1000.0 nM

Sequence of Mitogen-activated protein kinase kinase kinase 15 (Homo sapiens) (Q6ZN16 whole entry): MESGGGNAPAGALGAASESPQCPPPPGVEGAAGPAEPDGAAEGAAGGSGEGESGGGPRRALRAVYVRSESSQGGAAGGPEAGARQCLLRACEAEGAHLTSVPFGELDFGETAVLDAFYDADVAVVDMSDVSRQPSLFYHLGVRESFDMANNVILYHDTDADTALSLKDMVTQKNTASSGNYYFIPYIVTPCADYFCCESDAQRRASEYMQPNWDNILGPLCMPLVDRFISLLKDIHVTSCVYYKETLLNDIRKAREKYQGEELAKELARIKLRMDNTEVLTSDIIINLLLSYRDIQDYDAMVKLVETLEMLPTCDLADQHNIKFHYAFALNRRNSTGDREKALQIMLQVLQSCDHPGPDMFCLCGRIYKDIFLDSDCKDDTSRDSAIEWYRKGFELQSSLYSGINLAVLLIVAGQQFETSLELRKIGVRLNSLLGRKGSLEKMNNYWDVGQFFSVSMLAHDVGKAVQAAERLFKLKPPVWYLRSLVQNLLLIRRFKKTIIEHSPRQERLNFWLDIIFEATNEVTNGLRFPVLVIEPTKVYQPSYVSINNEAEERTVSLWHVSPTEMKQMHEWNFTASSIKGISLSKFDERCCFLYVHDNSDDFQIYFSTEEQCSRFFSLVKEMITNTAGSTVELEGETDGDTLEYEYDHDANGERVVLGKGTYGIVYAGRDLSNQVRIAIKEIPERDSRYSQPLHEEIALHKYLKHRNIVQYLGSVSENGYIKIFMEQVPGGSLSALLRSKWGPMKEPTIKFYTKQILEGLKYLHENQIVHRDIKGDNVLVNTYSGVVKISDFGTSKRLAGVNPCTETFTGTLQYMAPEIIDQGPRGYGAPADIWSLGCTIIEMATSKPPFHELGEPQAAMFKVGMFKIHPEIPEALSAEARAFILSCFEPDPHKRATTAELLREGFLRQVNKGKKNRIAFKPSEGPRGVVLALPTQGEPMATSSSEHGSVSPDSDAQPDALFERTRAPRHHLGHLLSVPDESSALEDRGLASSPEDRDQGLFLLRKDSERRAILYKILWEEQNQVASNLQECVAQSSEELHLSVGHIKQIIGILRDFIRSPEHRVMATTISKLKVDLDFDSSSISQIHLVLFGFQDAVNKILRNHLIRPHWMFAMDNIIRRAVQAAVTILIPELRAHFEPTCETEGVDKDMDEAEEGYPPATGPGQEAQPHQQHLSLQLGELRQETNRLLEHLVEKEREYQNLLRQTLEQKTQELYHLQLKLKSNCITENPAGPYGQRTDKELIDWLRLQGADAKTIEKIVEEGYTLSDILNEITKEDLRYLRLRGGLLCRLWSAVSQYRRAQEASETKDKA
Sequence of Dual specificity mitogen-activated protein kinase kinase 3 (Homo sapiens) (P46734 whole entry, canonical isoform): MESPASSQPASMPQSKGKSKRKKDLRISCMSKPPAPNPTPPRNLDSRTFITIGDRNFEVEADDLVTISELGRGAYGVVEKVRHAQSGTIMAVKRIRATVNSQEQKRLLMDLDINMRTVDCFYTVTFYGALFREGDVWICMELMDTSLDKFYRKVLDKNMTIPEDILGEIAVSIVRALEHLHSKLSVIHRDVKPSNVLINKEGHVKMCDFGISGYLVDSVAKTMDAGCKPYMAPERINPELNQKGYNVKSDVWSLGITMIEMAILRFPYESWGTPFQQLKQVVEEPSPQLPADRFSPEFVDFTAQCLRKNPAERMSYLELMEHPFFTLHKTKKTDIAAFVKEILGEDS
Sequence of Mitogen-activated protein kinase 13 (Homo sapiens) (O15264 whole entry): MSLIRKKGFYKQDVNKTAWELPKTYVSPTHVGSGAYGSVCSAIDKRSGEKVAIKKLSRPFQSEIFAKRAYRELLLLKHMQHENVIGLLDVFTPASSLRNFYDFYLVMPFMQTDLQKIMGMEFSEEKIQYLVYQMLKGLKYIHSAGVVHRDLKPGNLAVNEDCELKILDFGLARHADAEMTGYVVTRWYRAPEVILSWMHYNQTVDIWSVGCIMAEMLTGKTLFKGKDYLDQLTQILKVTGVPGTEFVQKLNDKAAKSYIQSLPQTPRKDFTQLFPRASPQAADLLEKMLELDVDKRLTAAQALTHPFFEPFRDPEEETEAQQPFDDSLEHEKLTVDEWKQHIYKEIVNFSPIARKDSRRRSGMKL
Sequence of cAMP-dependent protein kinase catalytic subunit PRKX (Homo sapiens) (P51817 whole entry): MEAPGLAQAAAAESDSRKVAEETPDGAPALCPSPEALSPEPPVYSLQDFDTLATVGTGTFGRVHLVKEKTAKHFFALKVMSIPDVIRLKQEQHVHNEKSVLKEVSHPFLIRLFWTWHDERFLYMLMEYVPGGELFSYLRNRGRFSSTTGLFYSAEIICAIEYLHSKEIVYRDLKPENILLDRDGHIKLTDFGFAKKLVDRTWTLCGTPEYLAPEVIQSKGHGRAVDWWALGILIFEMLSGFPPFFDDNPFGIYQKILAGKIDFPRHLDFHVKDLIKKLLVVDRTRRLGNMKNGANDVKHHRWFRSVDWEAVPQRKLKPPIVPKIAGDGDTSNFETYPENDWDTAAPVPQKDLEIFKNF
Sequence of Serine/threonine-protein kinase 4 (Homo sapiens) (Q13043 whole entry): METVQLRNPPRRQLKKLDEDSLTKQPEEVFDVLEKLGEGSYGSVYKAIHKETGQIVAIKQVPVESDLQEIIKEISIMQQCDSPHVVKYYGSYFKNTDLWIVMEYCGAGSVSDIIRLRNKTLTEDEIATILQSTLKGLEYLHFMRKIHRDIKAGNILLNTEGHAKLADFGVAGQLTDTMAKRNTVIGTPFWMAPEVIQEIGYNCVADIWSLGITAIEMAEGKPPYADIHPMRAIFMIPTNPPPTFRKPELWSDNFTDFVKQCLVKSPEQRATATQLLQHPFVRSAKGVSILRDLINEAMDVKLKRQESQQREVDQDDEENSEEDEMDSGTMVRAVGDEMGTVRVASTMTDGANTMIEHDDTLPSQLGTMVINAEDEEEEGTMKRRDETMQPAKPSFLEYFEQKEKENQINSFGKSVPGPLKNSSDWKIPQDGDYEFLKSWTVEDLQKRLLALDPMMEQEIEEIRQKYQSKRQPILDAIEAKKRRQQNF
Sequence of Insulin-like growth factor 1 receptor (Homo sapiens) (P08069 31-736 limits assumed): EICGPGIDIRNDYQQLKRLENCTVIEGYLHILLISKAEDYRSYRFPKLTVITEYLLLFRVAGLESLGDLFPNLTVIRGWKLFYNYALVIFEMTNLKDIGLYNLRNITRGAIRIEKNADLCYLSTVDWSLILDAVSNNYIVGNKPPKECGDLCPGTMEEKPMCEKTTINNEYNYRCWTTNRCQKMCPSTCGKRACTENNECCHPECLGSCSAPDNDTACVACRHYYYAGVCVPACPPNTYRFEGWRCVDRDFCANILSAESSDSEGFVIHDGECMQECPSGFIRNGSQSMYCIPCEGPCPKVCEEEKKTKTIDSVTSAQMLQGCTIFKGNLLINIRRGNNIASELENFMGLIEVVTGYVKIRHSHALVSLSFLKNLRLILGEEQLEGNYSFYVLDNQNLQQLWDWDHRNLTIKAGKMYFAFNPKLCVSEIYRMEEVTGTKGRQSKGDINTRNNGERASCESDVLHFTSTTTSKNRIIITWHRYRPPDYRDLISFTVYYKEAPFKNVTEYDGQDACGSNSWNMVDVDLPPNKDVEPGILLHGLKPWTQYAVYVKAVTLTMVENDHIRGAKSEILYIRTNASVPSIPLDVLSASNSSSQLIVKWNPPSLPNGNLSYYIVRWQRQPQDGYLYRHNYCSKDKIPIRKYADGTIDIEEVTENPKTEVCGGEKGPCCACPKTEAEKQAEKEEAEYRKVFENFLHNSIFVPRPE
Sequence of Insulin-like growth factor 1 receptor (Homo sapiens) (P08069 741-1367 limits assumed): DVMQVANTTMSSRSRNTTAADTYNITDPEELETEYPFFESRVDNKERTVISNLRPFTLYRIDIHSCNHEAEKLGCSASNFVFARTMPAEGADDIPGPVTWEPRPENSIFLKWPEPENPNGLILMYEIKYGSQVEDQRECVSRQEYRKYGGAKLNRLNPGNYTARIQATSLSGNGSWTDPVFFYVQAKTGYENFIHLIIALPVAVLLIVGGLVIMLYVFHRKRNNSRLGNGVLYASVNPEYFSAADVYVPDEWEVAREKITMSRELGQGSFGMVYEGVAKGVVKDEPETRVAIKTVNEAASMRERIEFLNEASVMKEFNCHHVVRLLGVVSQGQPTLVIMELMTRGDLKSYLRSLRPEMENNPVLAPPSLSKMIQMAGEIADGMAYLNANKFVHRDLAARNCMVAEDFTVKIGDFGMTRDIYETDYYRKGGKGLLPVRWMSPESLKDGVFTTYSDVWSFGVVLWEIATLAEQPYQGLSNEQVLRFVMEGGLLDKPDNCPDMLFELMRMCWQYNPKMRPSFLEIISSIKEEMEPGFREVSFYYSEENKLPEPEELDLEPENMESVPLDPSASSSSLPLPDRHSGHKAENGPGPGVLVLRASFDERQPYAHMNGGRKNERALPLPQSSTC
Sequence of Serine/threonine-protein kinase VRK2 (Homo sapiens) (Q86Y07 whole entry): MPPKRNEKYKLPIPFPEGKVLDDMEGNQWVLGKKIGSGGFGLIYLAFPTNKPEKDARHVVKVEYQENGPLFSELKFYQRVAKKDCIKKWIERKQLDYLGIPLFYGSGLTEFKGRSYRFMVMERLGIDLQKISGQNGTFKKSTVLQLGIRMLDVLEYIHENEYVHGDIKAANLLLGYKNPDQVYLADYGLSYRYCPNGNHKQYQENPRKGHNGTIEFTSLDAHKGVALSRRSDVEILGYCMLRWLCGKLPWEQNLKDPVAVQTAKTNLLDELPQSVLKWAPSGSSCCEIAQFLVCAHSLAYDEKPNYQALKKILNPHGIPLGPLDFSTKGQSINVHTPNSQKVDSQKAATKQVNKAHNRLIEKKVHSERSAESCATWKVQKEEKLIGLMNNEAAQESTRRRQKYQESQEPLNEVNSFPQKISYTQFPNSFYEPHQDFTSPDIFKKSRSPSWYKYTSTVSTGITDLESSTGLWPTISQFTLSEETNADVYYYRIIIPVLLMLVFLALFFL
Sequence of Sigma intracellular receptor 2 (Q5BJF2 whole entry): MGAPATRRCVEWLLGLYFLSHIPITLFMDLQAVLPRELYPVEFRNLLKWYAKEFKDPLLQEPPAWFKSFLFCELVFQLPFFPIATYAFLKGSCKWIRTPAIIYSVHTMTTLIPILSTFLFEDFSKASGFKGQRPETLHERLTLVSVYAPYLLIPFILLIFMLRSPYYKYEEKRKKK

C[C@H](NC(=O)c1cnc2n1[C@](C)(Cc1ccc(C#N)cc1)C(=O)N2c1cc(Cl)c(F)c(Cl)c1)C(=O)NC1(c2ccccn2)CC1 [BI 1950] was tested, and the residual activity [1] was 100%, the inhibition [2] was 6.14% and the residual activity [3] was 100%. It also gave a residual activity [4] of 92%, a residual activity [5] of 85% and a residual activity [6] of 100%. It also gave a residual activity [7] of 100%, a residual activity [8] of 100% and a residual activity [9] of 100%. The residual activity [10] was 81%, the residual activity [11] was 100% and the residual activity [12] was 99%. The residual activity [13] was 100%, the residual activity [14] was 100% and the residual activity [15] was 94%. For the same compound, the residual activity [16] was 100%, the residual activity [17] was 80% and the residual activity [18] was 100%. For the same compound, the residual activity [19] was 100%, the residual activity [20] was 100% and the residual activity [21] was 100%. For the same compound, the residual activity [22] was 100%, the residual activity [23] was 100% and the inhibition [24] was 16.5%. For the same compound, the inhibition [25] was 25.9%, the residual activity [26] was 100% and the residual activity [27] was 92%. It also gave a residual activity [28] of 100%, a residual activity [29] of 100% and a residual activity [30] of 100%. The inhibition [31] was 12%, the residual activity [32] was 97% and the residual activity [33] was 100%. The residual activity [34] was 88%, the residual activity [35] was 91% and the residual activity [36] was 100%. It also gave a residual activity [37] of 100%, a residual activity [38] of 100% and a residual activity [39] of 76%. The residual activity [40] was 100%, the residual activity [41] was 100% and the residual activity [42] was 100%. The residual activity [43] was 62%, the residual activity [44] was 100% and the residual activity [45] was 100%.

C[C@@]1(Cc2ccc(C#N)cc2)C(=O)N(c2cc(Cl)cc(Cl)c2)c2ncc(C(=O)NC3(c4nc(C5CCC5)no4)CC3)n21 [BI 9446] showed a residual activity [1] of 100%, an inhibition [2] of 2.14% and a residual activity [3] of 100%. It also gave a residual activity [4] of 100%, a residual activity [5] of 100% and a residual activity [6] of 94%. The residual activity [7] was 100%, the residual activity [8] was 100% and the residual activity [9] was 100%. For the same compound, the residual activity [10] was 76%, the residual activity [11] was 100% and the residual activity [12] was 100%. It also gave a residual activity [13] of 100%, a residual activity [14] of 100% and a residual activity [15] of 84%. For the same compound, the residual activity [16] was 100%, the residual activity [17] was 89% and the residual activity [18] was 89%. The residual activity [19] was 100%, the residual activity [20] was 100% and the residual activity [21] was 100%. The residual activity [22] was 100%, the residual activity [23] was 100% and the inhibition [24] was 17.5%. The inhibition [25] was 58%, the residual activity [26] was 100% and the residual activity [27] was 92%. It also gave a residual activity [28] of 100%, a residual activity [29] of 99% and a residual activity [30] of 88%. It also gave an inhibition [31] of 22.4%, a residual activity [32] of 94% and a residual activity [33] of 100%. For the same compound, the residual activity [34] was 90%, the residual activity [35] was 92% and the residual activity [36] was 100%. It also gave a residual activity [37] of 100%, a residual activity [38] of 100% and a residual activity [39] of 81%. The residual activity [40] was 100%, the residual activity [41] was 100% and the residual activity [42] was 92%. It also gave a residual activity [43] of 100%, a residual activity [44] of 85% and a residual activity [45] of 100%.
